From US11779602B2, “Methods of use for CAR T cells” (ENDOCYTE, INC., priority 2018, dated 2023)

Columns and labels:
MDA-MB-231 tumor = experiment: Kinetics of CAR-T cell expansion and tumor uptake in MDA-MB-231 tumor bearing mice; format: in vivo
Experimental: When the tumor sizes averaged at ˜350±60 mm^3 on day 2, up to […] of EC17 at 500 nmol/kg were given on days 2, 9, 16, 23, and 30. For ex-vivo analysis, 3 animals were taken before the next EC17 dose on days 9, 16, 23, and 30 for a total of 4 collections. For comparison, the same EC17 dose was given to 3 CAR-T mice that had ˜4.4× larger tumor sizes on day 2 (˜1555±79 mm^3). For each collection, fresh blood and tumor samples (if available) were analyzed for the presence of human CD3ε+EGFRt+ CAR-T cells by flow cytometry.
The dynamic interplay between EC17 and CAR-T cells in vivo was further analyzed using MDA-MB-231 tumor model, which was previously found to be among the highest FR expressing tumors at 103±15 pmol/mg membrane protein using a ^3H-FA-based radioligand binding assay. […] Seven days following a single EC17 dose (i.e., study day 9), human CD3ε+EGFRt+ CAR-T cells were detected in the blood of mice, with elevated numbers circulating in mice bearing larger tumors (FIGS. 62B-E). […]
For CAR-T cell analysis in the circulation, plasma was removed from a predetermined volume of whole blood collected into tubes containing ethylenediaminetetraacetic acid anticoagulant. […] A minimum of 20,000 propidium iodide negative live cell events were collected on the Gallios flow cytometer and analyzed with the Kaluza software, version 2.1 (Beckman Coulter, Brea, Calif.). […]

FR-negative HOS-143b = experiment: Co-culture at 10 nM EC17, varying E/T ratios: specific lysis; format: cell-based, human; conditions: 10 nM EC17, 48 hours
Experimental: After 24 hours of co-culture, supernatants were harvested to determine tumor cell killing. To study the kinetics of T cell activation and FR correlation in vitro (FIGS. 60A-L), co-cultures were carried out in FR+/− cell lines at varying E/T ratios (1:27, 1:9, 1:3, 1:1, 3:1) in the continuous presence of 10 nM EC17. The kinetics of tumor cell killing were quantified after 16 and 48 hours of co-culture. Meanwhile, a portion of the supernatants was taken after 44 hours of co-culture for measurement of IFNγ, IL-2 and TNFα. Using Promega's CytoTox 96® LDH assay kit, target cell killing was quantified and expressed as specific lysis (%) which was normalized to basal levels in the absence of EC17 at defined E/T ratios. The LEGENDplex™ human Th1 cytokine panel (BioLegend, San Diego, Calif.) was used to determine CAR-T cell derived cytokines.
Specific lysis (%) was quantified after 16 and 48 hours of co-culture, and Th1 cytokines (IFNγ, IL-2, TNFα) in culture media were measured after 44 hours of co-culture. […] It generally took a longer time (48 hours) and a higher E/T ratio (≥1:1) to see significant activity in the lowest FR-expressing OV90 cells (FIGS. 60A-G). The high FR-expressing KB cells responded […] to cause significant cell death (FIG. 60F).

NC1=NC2N=CC(CNc3ccc(C(=O)N[C@@H](CCC(=O)NCCNC(=S)Nc4ccc(-c5c6ccc(=O)cc-6oc6cc(O)ccc56)c(C(=O)O)c4)C(=O)O)cc3)=NC2C(=O)N1 (stereo partly drawn) [EC17, FA-(γ)-ethylenediamine-FITC]
onset of tumor response (MDA-MB-231 tumor; EC17 500 nmol/kg weekly, ~4.8 million E2-CAR-T cells): started to respond after the second EC17 dose
body weight loss (MDA-MB-231 tumor; after EC17 administration, especially after the third dose): mild body weight loss
specific lysis response (FR-negative HOS-143b): essentially unharmed
